Key:
subjects with AAMI = conditions: 50 mg, cited from earlier work
[1] = tested on: subjects with age-associated impairment (AAMI); assay: CDR computerized cognitive test battery, 6-week placebo-controlled dose-ranging study; assay type: in vivo, human
Method: A single center, double blind, randomized, parallel-group, placebo controlled dose-ranging study of E-EPA in subjects with age-associated impairment (AAMI) was performed. The primary goal was to examine the effect of ethyl-EPA versus placebo on cognitive performance in subjects with AAMI as measure by the power of attention tasks in a computerized test batter over a period of 6 weeks. Secondary objectives were to:
(1) examine the effect of E-EPA versus placebo over 6 weeks on the following tests in the computerized cognitive battery: Continuity of attention tasks; Quality of working memory tasks; Quality of episodic memory tasks; Speed of attention tasks;
The study plan was to enroll 96 subjects who would be randomly allocated to 1 of 4 possible treatment groups for 6 weeks, in a balanced block design (24 subjects per group), as follows: • 1. 1 g ethyl-EPA daily • 2. 2 g ethyl-EPA daily • 3. 4 g ethyl-EPA daily • 4. Placebo (paraffin oil) daily
Ethyl-EPA was provided as 500 mg soft gel capsules providing ethyl-EPA of >96% purity, 0.25% to 0.38% by weight ethyl octadecatetraenoate, 0.075% to 0.15% by weight ethyl nonaecapentaenoate, 0.25% to 0.35% by weight ethyl arachidonate, 0.3% to 0.4% by weight ethyl eicosatetraenoate (ETA-E), 0.075% to 0.15% ethyl heneicosapentaenoate and 0.2% dl-[…]-tocopherol as an antioxidant. Matching placebo capsules contained […] of liquid paraffin and 0.2% dl-[…]-tocopherol. The placebo group was further randomized so that an equal number of subjects (8) was allocated 1 g, 2 g or 4 g placebo. Study drug was taken twice daily (BID) as a divided dose (e.g. for the 1 g dose, 500 mg was given in the morning and a further 500 mg was given in the evening) with a light snack or meal.
The study consisted of a screening visit, a training visit and 4 study visits. At the screening visit, subjects' eligibility was determined through cognitive tests (verbal paired associated learning [PAL] subscale, vocabulary subtest, Memory Assessment Clinics Questionnaire [MAC-Q], mini mental state evaluation [MMSE] and MINI [mini international neuropsychiatirc interview; sections 1 and 2 of Diagnostic and Statistical Manual of Mental Disorders, 4th Ed. (DSM-IV) plus dysthymia]), haematology, clinical chemistry and 12-lead electrocardiogram (ECG). At the training visit, subjects were shown how to use the CDR computerized system. Subjects took study drug for 6 weeks and on Days 0, 14, 28 and 42, subjects underwent the CDR cognitive test battery.
A selection of tasks from the CDR computerized cognitive assessment system were administered (Appendix 8 of protocol) at Visit 2 (training visit), Visit 3 (baseline), Visit 4 (Day 14), Visit 5 (Day 28) and Visit 6 (Day 42). Parallel forms of the tests were presented at each testing session. All tasks were computer-controlled, the information presented on high resolution monitors, and the responses recorded via a response model containing 2 buttons 1 marked ‘no’ the other ‘yes’. Five CDR composite scores were used as the primary/secondary outcome variables.
Summary statistics were provided for the ITT and Study PP Populations separately for all composite scores, major and supportive variables. Summary statistics were performed for both the unadjusted and difference from baseline data (i.e. the difference from the time matched pre-dose assessments on Day 0). Summary statistics were calculated by treatment, day and time-point. The summary statistics comprised n, mean, median, SD, standard error of mean (SEM), minimum and maximum values.
Difference from baseline data for each major variable was evaluated by an Analysis of Covariance (ANCOVA) using SAS® PROC MIXED Version 8.2.
Fixed effects for treatment, day, time point, treatment by day, treatment by time point, treatment by day by time-point were fitted. Subject within treatment was fitted as a repeated effect using the repeated statement. The compound symmetry covariance structure was used. […]

[2] = tested on: patients with fasting triglyceride levels ≥500 mg/dL; assay: Phase 3 12-week double-blind study: treatment-emergent adverse events; assay type: in vivo, human; conditions: 12 weeks
Method: A multi-center, placebo-controlled randomized, double-blind, 12-week study with an open-label extension was performed to evaluate the efficacy and safety of AMR101 in patients with fasting triglyceride levels ≥500 mg/dL. The primary objective of the study was to determine the efficacy of AMR101 2 g daily and 4 g daily, compared to placebo, in lowering fasting TG levels in patients with fasting TG levels ≥500 mg/dL and ≤1500 mg/dL (≥5.65 mmol/L and ≤16.94 mmol/L). Approximately 240 patients were randomized at approximately 50 centers in North America, South America, Central America, Europe, India, and South Africa. The Phase 3, multi-center study consisted of 3 study periods: (1) A 6- to 8-week screening period that includes a diet and lifestyle stabilization and washout period and a TG qualifying period; (2) A 12-week, double-blind, randomized, placebo-controlled treatment period; and (3) A 40-week, open-label, extension period. After confirmation of qualifying fasting TG values, eligible patients entered a 12-week, randomized, double-blind treatment period. At Visit 4 (Week 0), patients were randomly assigned to 1 of the following treatment groups: • AMR101 2 g daily, • AMR101 4 g daily, or • Placebo. Eligible patients were randomly assigned at Visit 4 (Week 0) to receive orally AMR101 2 g daily, AMR101 4 g daily, or placebo for the 12-week double-blind treatment period. AMR101 was provided in 1 g liquid-filled, oblong, gelatin capsules. The matching placebo capsule was filled with light liquid paraffin and contained 0 g of AMR101. During the double-blind treatment period, patients took 2 capsules (AMR101 or matching placebo) in the morning and 2 in the evening for a total of 4 capsules per day. Patients in the AMR101 2 g/day treatment group received 1 AMR101 1 g capsule and 1 matching placebo capsule in the morning and in the evening. Patients in the AMR101 4 g/day treatment group received 2 AMR101 1 g capsules in the morning and evening. The efficacy variable for the open-label extension period was percent change in fasting TG from extension baseline to end of treatment. Safety assessments included adverse events, clinical laboratory measurements (chemistry, hematology, and urinalysis), 12-lead electrocardiograms (ECGs), vital signs, and physical examinations Top line results of the study are shown in FIGS. 3 and 4. Adverse events are shown in Table 9 by comparison with placebo and those experienced by subjects taking commercially available mixture of E-EPA and E-DHA (Lovaza).

[3] = Essential fatty acid (EFA) measurements in plasma and RBC, AAMI study; assay type: in vivo, human
Method: (3) assess the potential dose-effect relationship of E-EPA on the cognitive endpoints by measurement of essential fatty acids in plasma and red blood cell membranes. 94 subjects were randomized. Blood samples (10 mL) were collected at Visit 1 (screening) and at Visits 4, 5 and 6. Analysis was performed by MSR Lipid Analysis, Scottish Crop Research Institute, Dundee, UK. The screening sample acted as baseline for the EFA measurements. Lipid was extracted from plasma, serum and RBC suspensions and converted into fatty acid methyl esters which were analyzed by gas chromatography to give fatty acid profiles as micrograms fatty acid per gram of sample (μgFA/g) and normalized area percent. The CDR computerized system has been used to measure the effects of pharmaceuticals on cognitive function in a variety of clinical trials. Efficacy was assessed by a battery of cognition tests designed by CDR. Safety data were analyzed by Quanticate. RBC and plasma EFA data were collected at baseline, Day 14, 28 and 42 and summarized by visit for each treatment group. Change from baseline and percent change from baseline were also summarized. ANCOVA comparison of ethyl-EPA dose groups and ethyl-EPA versus placebo was performed.

[4] = parameters: species or system human; conditions: in vivo
Method: A phase I, multiple dose pharmacokinetic study in healthy male volunteers was carried out at a single center. Twenty-four subjects were divided into two treatment groups of 12 subjects each (groups A and B). Both groups received the same total daily dose of AMR101 but the dosing regiments were different. All subjects received a single oral dose of 2 g AMR101 on Day 1. Treatment Group A received 28 continuous once daily doses of 2 g AMR101. Treatment Group B received 27 continuous twice daily doses of 1 g AMR101 and a single dose of 2 g of AMR101 on day 30.
Levels of EPA and other essential fatty acids were determined in plasma and red blood cells. Blood samples for pharmacokinetic analysis were taken at the following time points for Treatment groups A and B:
Days 9, 16, 23: pre morning dose;
Days 37, 44, 58: post last dose.
A first Interim Report presents the following pharmacokinetic results for Treatment Group B:
Red cell—Day 1 (Pre-dose and 36 h), Day 30 (1 h post-dose), Day 37, Day 44, Day 58.

[5] = tested on: individuals with Huntington disease; assay: Huntington disease trial (TREND-HD): non-fasting triacylglycerols and total cholesterol; assay type: in vivo, human
Source text: Eligible study participants provided written consent. […] The outcome measure of this study was the change in non-fasting triacylglycerol (TG) levels in those on AMR101 compared to those on placebo. Changes in lipid levels were compared using an analysis of covariance (ANCOVA) with treatment group as the factor of interest, site as a stratification factor, and baseline value as a covariate. All individuals who received study medication were included in the safety analysis. For each type of adverse event, the treatment groups were compared regarding the occurrence of at least one event using Fisher's exact test.

[6] = tested on: individuals with Huntington disease; assay: Huntington disease trial (TREND-HD): total motor score 4 of the Unified Huntington's Disease Rating Scale; assay type: in vivo, human
Source text: Eligible study participants provided written consent.

SMILES: CN[C@@H](C)C/C=C/c1cncc(OC(C)C)c1 [Ispronicline]
- Power of Attention, mean (subjects with AAMI; Day 21, SD=61.22, placebo mean=28.25): -32.54 ms
- benefit to Power of Attention (vs placebo) (subjects with AAMI; Day 21 of repeated dosing, subjects with AAMI): 61 ms

SMILES: CC/C=C\C/C=C\C/C=C\C/C=C\C/C=C\CCCC(=O)OCC [AMR101, all-cis eicosa-5,8,11,14,17-pentaenoic acid ethyl ester]
- Choice Reaction Time ([1]; 1 and 4 g ethyl-EPA on Day 42, versus placebo): some trends for benefit
- Continuity of Attention ([1]; 2 g ethyl-EPA, only visible in the ITT population): overall decrease
- Speed of Memory and subtasks (Spatial and Numeric Working Memory Speeds, Word and Picture Recognition Speed) ([1]; Ethyl-EPA vs placebo, F-ratio statistics): no differences in performance
- Digit Vigilance Targets Detected ([1]; active treatment versus placebo, no obvious treatment-related pattern): isolated decreases
- Self-rated Calmness ([1]; active treatment vs placebo): no difference in ratings
- Power of Attention ([1]; ethyl-EPA 1, 2, 4 g daily vs placebo, 6 weeks, ANCOVA): no statistically significant effect of treatment
- Choice Reaction Time ([1]; ethyl-EPA 1 g and 2 g on Day 28, versus placebo, no clear treatment-related pattern): statistically significant benefits
- Quality of Working Memory ([1]; ethyl-EPA 1 g and 2 g versus placebo on Days 14 and 28, judged due to chance): isolated statistically significant decreases
- Self-rated Contentment ([1]; ethyl-EPA 2 g on Day 28, judged unlikely treatment-related): statistically significant decreases in ratings
- Quality of Episodic Secondary Memory ([1]; ethyl-EPA versus placebo at various time-points, judged unlikely to be treatment effect): statistically significant decreases
- Self-rated Alertness ([1]; ethyl-EPA vs placebo): no apparent difference in ratings
- Continuity of Attention ([1]; ethyl-EPA vs placebo, 6 weeks): did not show a difference
- Reaction times in the attention tasks (Power of Attention, Simple Reaction Time, Choice Reaction Time) ([1]; post-hoc analysis, ethyl-EPA 4 g vs corresponding placebo): improved the subjects' reaction times
- Diarrhea ([2]; 2 g/day, N = 76): 4 (5.3) n (%)
- Dyspepsia ([2]; 2 g/day, N = 76): 1 (1.3) n (%)
- Eructation ([2]; 2 g/day, N = 76): 1 (1.3) n (%)
- Hypertension ([2]; 2 g/day, N = 76): 4 (5.3) n (%)
- Infection ([2]; 2 g/day, N = 76): 2 (2.6) n (%)
- Nausea ([2]; 2 g/day, N = 76): 5 (6.6) n (%)
- Skin rash ([2]; 2 g/day, N = 76): 1 (1.3) n (%)
- Subjects with any TEAE ([2]; 2 g/day, N = 76): 27 (35.5) n (%)
- Diarrhea ([2]; 4 g/day, N = 77): 1 (1.3) n (%)
- Dyspepsia ([2]; 4 g/day, N = 77): 1 (1.3) n (%)
- Eructation ([2]; 4 g/day, N = 77): 0 (0.0) n (%)
- Hypertension ([2]; 4 g/day, N = 77): 1 (1.3) n (%)
- Infection ([2]; 4 g/day, N = 77): 4 (5.2) n (%)
- Nausea ([2]; 4 g/day, N = 77): 1 (1.3) n (%)
- Skin rash ([2]; 4 g/day, N = 77): 0 (0.0) n (%)
- Subjects with any TEAE ([2]; 4 g/day, N = 77): 28 (36.4) n (%)
- Percent Fatty Acid Change from Baseline: AA ([3]; 4 g dose, plasma, 6 weeks): −21.9%
- Percent Fatty Acid Change from Baseline: DGLA ([3]; 4 g dose, plasma, 6 weeks): −39.4%
- Percent Fatty Acid Change from Baseline: DHA ([3]; 4 g dose, plasma, 6 weeks): −17.5%
- Percent Fatty Acid Change from Baseline: DPA ([3]; 4 g dose, plasma, 6 weeks): +147%
- EPA, DPAn-3 and EPA/AA ratio plasma and RBC values ([3]; baseline to Day 42, 1, 2, and 4 g treatment groups): increased substantially
- AA, DHA and DGLA values ([3]; change from baseline, data not shown): decreased substantially
- plasma lipid EPA levels at 48 hours post-administration ([4]; po): remaining above baseline
- Tmax ([4]; male, human): 4.64 h
- time of maximum plasma lipid EPA values ([4]; male, human, po): 5 h
- Total cholesterol reduction ([5]; 1 gram twice/day, after 6 months, baseline 204 mg/dL, p=0.009 vs placebo): 9.5 mg/dL
- decrease in TGs ([5]; 1 gram twice/day, after 6 months, non-fasting, baseline 171, p=0.007 vs placebo): 26 mg/dL
- Change in triglycerides after 6 months (mean mg/dL ± SD) ([5]; 1 gram twice/day, baseline 171 ± 108, p .007): -25.8 ± 89.1 mg/dL
- Change in total cholesterol after 6 months (mean mg/dL ± SD) ([5]; 1 gram twice/day, baseline 204 ± 41.4, p .009): -9.5 ± 28.6 mg/dL
- Change in triglycerides after 12 months (mean mg/dL ± SD) ([5]; second 6 months open-label, p 0.66): -17.7 ± 86.7 mg/dL
- Change in total cholesterol after 12 months (mean mg/dL ± SD) ([5]; second 6 months open-label, p 0.95): -5.6 ± 25.5 mg/dL
- Change in total motor score 4 at 12 months (mean) ([6]; All Study Participants n = 316, baseline 25.2, p 0.02): 0.0
- Change in total motor score 4 at 6 months (mean) ([6]; All Study Participants n = 316, baseline 25.2, p 0.20): 0.2
- Change in total motor score 4 at 12 months (mean) ([6]; Study Participants with CAG < 45, n = 221, baseline 24.9, p 0.004): −1.2
- Change in total motor score 4 at 6 months (mean) ([6]; Study Participants with CAG < 45, n = 221, baseline 24.9, p 0.70): 0.0
